Tests used:
[1] = system: PC-3M-Luc-C6 prostate cells; experiment: In vitro PC-3M-Luc-C6 prostate cell proliferation assay in lipid reduced medium; assay type: cell-based; conditions: 96 h, read-out: pIC50 PC-3M-Luc-C6 prostate cell (converted)
[2] = target: T1, hFASN enzyme (full length) (Homo sapiens, UniProt P49327); experiment: Fatty Acid Synthase (FASN) inhibition scintillation proximity assay; assay type: biochemical; conditions: for inhibition at 10 µM: read-out: Human FASN % inhibition @ 10 μM, 10 μM test compound; for IC50: read-out: Human FASN pIC50 (converted)
T1 construct: 10 μL hFASN enzyme (full length, 300 ng, purified in house); made in house
Summary of the method: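 Scintillation proximity format: in-house full-length enzyme, 300 ng per well, pH 7.5 phosphate/DTT buffer, ³H-acetyl-CoA and malonyl-CoA. Emission counted on LEADseeker at 610 nm at least 24 h after stopping.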

[3] = system: LNCaP-Vancouver prostate cells; experiment: In vitro LNCaP Vancouver prostate cell proliferation assay in lipid reduced medium; assay type: cell-based; conditions: read-out: pIC50 LNCaP_Vancouver prostate cell (converted)
[4] = target: Fatty Acid Synthase Keto-reductase Domain (FASN KR) (Homo sapiens, UniProt P49327); experiment: Fatty Acid Synthase keto-reductase domain (FASN KR) inhibition, NADPH oxidation at 340 nm
Sequence of Fatty Acid Synthase Keto-reductase Domain (FASN KR) (P49327 whole entry, the tested form may be a part): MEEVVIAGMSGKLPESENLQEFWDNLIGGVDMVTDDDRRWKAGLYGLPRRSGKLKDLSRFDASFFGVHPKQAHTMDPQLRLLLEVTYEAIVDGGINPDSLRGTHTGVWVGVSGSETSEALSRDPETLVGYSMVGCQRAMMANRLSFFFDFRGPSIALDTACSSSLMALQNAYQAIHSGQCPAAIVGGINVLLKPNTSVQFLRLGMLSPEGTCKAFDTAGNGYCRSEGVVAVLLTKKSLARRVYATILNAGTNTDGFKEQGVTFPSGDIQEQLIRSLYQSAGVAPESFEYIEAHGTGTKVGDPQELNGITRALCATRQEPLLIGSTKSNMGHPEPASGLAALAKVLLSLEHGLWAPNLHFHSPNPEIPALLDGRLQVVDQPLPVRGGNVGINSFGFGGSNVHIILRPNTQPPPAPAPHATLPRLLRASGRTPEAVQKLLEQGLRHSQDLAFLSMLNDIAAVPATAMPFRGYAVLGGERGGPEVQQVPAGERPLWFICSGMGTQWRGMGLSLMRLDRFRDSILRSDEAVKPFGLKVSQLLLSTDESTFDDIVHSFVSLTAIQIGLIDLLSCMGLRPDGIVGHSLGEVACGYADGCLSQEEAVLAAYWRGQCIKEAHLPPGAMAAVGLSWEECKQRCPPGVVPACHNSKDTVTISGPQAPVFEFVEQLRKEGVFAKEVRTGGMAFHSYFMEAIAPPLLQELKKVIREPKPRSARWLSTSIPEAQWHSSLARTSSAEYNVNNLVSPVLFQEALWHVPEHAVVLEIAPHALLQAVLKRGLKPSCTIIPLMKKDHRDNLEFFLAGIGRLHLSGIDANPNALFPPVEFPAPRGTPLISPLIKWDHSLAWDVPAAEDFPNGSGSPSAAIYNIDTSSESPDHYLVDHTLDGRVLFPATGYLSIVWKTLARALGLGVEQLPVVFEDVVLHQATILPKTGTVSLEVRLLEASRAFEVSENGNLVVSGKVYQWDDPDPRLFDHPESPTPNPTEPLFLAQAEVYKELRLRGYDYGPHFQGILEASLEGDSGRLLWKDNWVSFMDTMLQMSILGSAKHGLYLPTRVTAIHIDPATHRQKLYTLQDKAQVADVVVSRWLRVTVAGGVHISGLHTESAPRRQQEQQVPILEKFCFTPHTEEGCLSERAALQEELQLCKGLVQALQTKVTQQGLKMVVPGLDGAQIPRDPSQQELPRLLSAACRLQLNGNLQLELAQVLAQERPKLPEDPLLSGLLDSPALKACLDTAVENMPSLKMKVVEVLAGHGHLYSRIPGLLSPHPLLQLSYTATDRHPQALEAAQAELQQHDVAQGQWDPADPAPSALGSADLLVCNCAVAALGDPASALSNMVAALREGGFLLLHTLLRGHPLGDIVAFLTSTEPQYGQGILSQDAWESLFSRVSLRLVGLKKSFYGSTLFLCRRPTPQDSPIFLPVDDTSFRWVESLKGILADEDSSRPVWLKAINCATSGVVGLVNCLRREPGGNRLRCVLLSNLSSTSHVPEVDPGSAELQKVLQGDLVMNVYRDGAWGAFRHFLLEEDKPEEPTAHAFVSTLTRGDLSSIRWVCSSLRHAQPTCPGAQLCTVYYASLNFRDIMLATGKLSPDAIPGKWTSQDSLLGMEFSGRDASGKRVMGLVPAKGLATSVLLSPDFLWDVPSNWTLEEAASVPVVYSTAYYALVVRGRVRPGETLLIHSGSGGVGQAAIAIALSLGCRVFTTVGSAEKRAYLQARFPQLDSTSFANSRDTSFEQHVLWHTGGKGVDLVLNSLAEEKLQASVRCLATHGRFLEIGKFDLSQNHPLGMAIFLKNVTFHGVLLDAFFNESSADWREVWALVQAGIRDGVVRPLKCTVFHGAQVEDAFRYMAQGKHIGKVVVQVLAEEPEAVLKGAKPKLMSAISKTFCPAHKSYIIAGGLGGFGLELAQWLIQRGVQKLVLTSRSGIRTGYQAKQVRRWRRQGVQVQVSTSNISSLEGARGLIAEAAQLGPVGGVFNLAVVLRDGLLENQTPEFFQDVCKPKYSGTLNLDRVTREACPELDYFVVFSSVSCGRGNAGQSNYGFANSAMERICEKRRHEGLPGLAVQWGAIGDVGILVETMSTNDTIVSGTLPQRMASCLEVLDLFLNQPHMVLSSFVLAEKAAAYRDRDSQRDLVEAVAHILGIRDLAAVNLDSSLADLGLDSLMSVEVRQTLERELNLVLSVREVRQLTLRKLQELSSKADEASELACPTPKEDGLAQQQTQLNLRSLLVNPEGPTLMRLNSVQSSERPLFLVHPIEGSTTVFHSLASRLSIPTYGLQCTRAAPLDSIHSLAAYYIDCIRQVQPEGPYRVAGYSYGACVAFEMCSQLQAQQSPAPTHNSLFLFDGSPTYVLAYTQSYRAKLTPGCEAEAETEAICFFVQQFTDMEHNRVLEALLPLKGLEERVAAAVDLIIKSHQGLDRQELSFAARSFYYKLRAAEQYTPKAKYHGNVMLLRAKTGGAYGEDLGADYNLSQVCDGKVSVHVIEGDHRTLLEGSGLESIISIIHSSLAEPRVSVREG
Description: After 20 minutes incubation at room temperature the plate was measured again (T2).
The decrease in absorbance was calculated as (Absorbance before incubation T1)−(Absorbance following incubation T2).
A plot of Controlmin versus test compound concentration was fitted to a 4-parameter logistic curve using a non-linear least squares regression method.

T1 sequence (P49327 whole entry): as the sequence (P49327 whole entry, the tested form may be a part) above

Row | Structure (SMILES) | IC50 [1] [nM] | inhibition at 10 µM [2] [%] | IC50 [2] [nM] | IC50 [3] [nM] | IC50 [4] [nM]
1 | Cn1cc(-c2ccc(-c3ccc(C4=NC5(CC5)C(=O)N4CC4CN(C(=O)C5CC5)C4)cc3)cn2)cn1 [compound 517, 6-{[1-(Cyclopropylcarbonyl)azetidin-3-yl]methyl}-5-{4-[6-(1-methyl-1H-pyrazol-4-yl)pyridin-3-yl]phenyl}-4,6-diazaspiro[2.4]hept-4-en-7-one] | 1260 | 88 | 646 | ~5250 | 1510
2 | Cn1ncc2cc(-c3ccc(C4=NC5(CCOCC5)C(=O)N4C[C@@H]4CCN(C(=O)[C@H]5CCCO5)C4)cc3)ccc21 [compound 674, 2-[4-(1-Methyl-1H-indazol-5-yl)phenyl]-3-({(3R)-1-[(2R)-tetrahydro-furan-2-ylcarbonyl]pyrrolidin-3-yl}methyl)-8-oxa-1,3-diazaspiro[4.5]dec-1-en-4-one] | ~813 | 94 | 457 | ~4900 | 3160
3 | Cn1ncc2cc(-c3ccc(C4=NC5(CCOC5)C(=O)N4C[C@@H]4CCN(C(=O)[C@H]5CCCO5)C4)cc3)ccc21 (stereo partly drawn) [compound 692, 2-[4-(1-Methyl-1H-indazol-5-yl)phenyl]-3-({(3R)-1-[(2R)-tetrahydro-furan-2-ylcarbonyl]pyrrolidin-3-yl}metrhyl)-7-oxa-1,3-diazaspiro[4.4]non-1-en-4-one] | 1580 | 99 | 794 | 4570 | 3240
4 | CC(O)C(=O)N1CC(CN2C(=O)C3(CCOCC3)N=C2c2ccc(-c3ccc4cccnc4c3)cc2)C1 (centres unmarked) [compound 699, 3-{[1-(2-Hydroxypropanoyl)azetidin-3-yl]methyl}-2-(4-quinolin-7-ylphenyl)-8-oxa-1,3-diazaspiro[4.5]dec-1-en-4-one] | 5130 | 89 | ~724 | > 10000 | 5370
5 | O=C([C@H]1CCCO1)N1CC(CN2C(=O)C3(CCOCC3)N=C2c2ccc(-c3ccc4occc4c3)cc2)C1 [compound 704, 2-[4-(1-Benzofuran-5-yl)phenyl]-3-({1-[(2R)-tetrahydro-furan-2-ylcarbonyl]azetidin-3-yl}methyl)-8-oxa-1,3-diazaspiro[4.5]dec-1-en-4-one] | ~5750 | 86 | 871 | 6920 | 6610
6 | CC(O)C(=O)N1CC(CN2C(=O)C3(CCOC3)N=C2c2ccc(-c3ccc4cccnc4c3)cc2)C1 (centres unmarked) [compound 715, 3-{[1-(2-Hydroxypropanoyl)azetidin-3-yl]methyl}-2-(4-quinolin-7-ylphenyl)-7-oxa-1,3-diazaspiro[4.4]non-1-en-4-one] | 5010 | 86 | 724 | > 10000 | 5500
7 | O=C([C@H]1CCCO1)N1CC(CN2C(=O)C3(CCOC3)N=C2c2ccc(-c3ccc4occc4c3)cc2)C1 (stereo partly drawn) [compound 720, 2-[4-(1-Benzofuran-5-yl)phenyl]-3-({1-[(2R)-tetrahydro-furan-2-ylcarbonyl]azetidin-3-yl}methyl)-7-oxa-1,3-diazaspiro[4.4]non-1-en-4-one] | 4680 | 87 | 776 | 9120 | 6460
8 | COC(=O)N1CC2(C1)N=C(c1ccc(-c3ccc(-c4cnn(C)c4)cc3)cc1)N(C[C@@H]1CCN(C(=O)[C@H]3CCCO3)C1)C2=O [compound 727, Methyl 6-[4′-(1-methyl-1H-pyrazol-4-yl)biphenyl-4-yl]-8-oxo-7-({(3R)-1-[(2R)-tetrahydro-furan-2-ylcarbonyl]pyrrolidin-3-yl}methyl)-2,5,7-triazaspiro[3.4]ect-5-ene-2-carboxylate] | 575 | 98 | 204 | 2400 | 1100

These reach a lower IC50 [4]. Values come first.

Row | IC50 [1] [nM] | inhibition at 10 µM [2] [%] | IC50 [2] [nM] | IC50 [3] [nM] | IC50 [4] [nM] | Structure (SMILES)
9 | ~912 | 97 | 135 | 3800 | 851 | COC(=O)N1CC2(C1)N=C(c1ccc(-c3ccc4occc4c3)cc1)N(C[C@@H]1CCN(C(=O)[C@H]3CCCO3)C1)C2=O [compound 735, Methyl 6-[4-(1-benzofuran-5-yl)phenyl]-8-oxo-7-({(3R)-1-[(2T)-tetrahydro-furan-2-ylcarbonyl]pyrrolidin-3-yl}methyl)-2,5,7-triazaspiro[3.4]oct-5-ene-2-carboxylate]
10 | 589 | 97 | 309 | 3800 | 661 | Cn1cc(-c2ccc(-c3ccc(C4=NC5(CCOCC5)C(=O)N4C[C@@H]4CCN(C(=O)[C@H]5CCCO5)C4)cc3)cc2)cn1 [compound 657, 2-[4′-(1-Methyl-1H-pyrazol-4-yl)biphenyl-4-yl]-3-({(3R)-1-[(2R)-tetrahydro-furan-2-ylcarbonyl]pyrrolidin-3-yl}methyl)-8-oxa-1,3-diazaspiro[4.5]dec-1-en-4-one]
11 | 501 | 98 | 269 | 1780 | 603 | Cn1cc(-c2ccc(-c3ccc(C4=NC5(CCOC5)C(=O)N4C[C@@H]4CCN(C(=O)C5CC5)C4)cc3)cc2)cn1 (stereo partly drawn) [compound 676, 3-{[(3R)-1-(Cyclopropylcarbonyl)pyrrolidin-3-yl]methyl}-2-[4′-(1-methyl-1H-pyrazol-4-yl)biphenyl-4-yl]-7-oxa-1,3-diazaspiro[4.4]non-1-en-4-one]
12 | 1290 | 96 | 200 | 3310 | 537 | COC(=O)N1CC2(C1)N=C(c1ccc(-c3ccc4occc4c3)cc1)N(C[C@@H]1CCN(C(=O)C3CC3)C1)C2=O [compound 733, Methyl 6-[4-(1-benzofuran-5-yl)phenyl]-7-{[(3R)-1-(cycloprropylcarbonyl)pyrrolidin-3-yl]methyl}-8-oxo-2,5,7-triazaspiro[3.4]oct-5-ene-2-carboxylate]
13 | 832 | 99 | 214 | 2950 | 525 | O=C([C@H]1CCCO1)N1CC[C@@H](CN2C(=O)C3(CCOC3)N=C2c2ccc(-c3ccc4occc4c3)cc2)C1 (stereo partly drawn) [compound 688, 2-[4-(1-Benzofuran-5-yl)phenyl]-3-({(3R)-1-[(2R)-tetrahydro-furan-2-ylcarbonyl]pyrrolidin-3-yl}methyl)-7-oxa-1,3-diazaspiro[4.4]non-1-en-4-one]
14 | ~871 | 92 | 234 | 3800 | 513 | COC(=O)N1CC2(C1)N=C(c1ccc(-c3ccc4c(cnn4C)c3)cc1)N(C[C@@H]1CCN(C(=O)[C@H]3CCCO3)C1)C2=O [compound 739, Methyl 6-[4-(1-methyl-1H-indazol-5-ylyl)phenyl]-8-oxo-7-({(3R)-1-[(2R)-tetrahydro-furan-2-ylcarbonyl]pyrrolidin-3-yl}methyl)-2,5,7-triazaspiro[3.4]oct-5-ene-2-carboxylate]
15 | ~234 | 99 | 178 | ~2510 | 407 | Cn1cc(-c2ccc(-c3ccc(C4=NC5(CCOCC5)C(=O)N4C[C@@H]4CCN(C(=O)C5CC5)C4)cc3)cc2)cn1 [compound 655, 3-{[(3R)-1-(cyclopropylcarbonyl)pyrrolidin-3-yl]methyl}-2-[4′-(1-methyl-1H-pyrazol-4-yl)biphenyl-4-yl]-8-oxa-1,3-diazaspiro[4.5]dec-1-en-4-one]
16 | 550 | 96 | 158 | 2690 | 389 | O=C(C1CC1)N1CC(CN2C(=O)C3(CC3)N=C2c2ccc(-c3cnc4ccccc4c3)cc2)C1 [compound 519, 6-{[1-(Cyclopropylcarbonyl)azetidin-3-yl]methyl}-5-(4-quinolin-3-ylphenyl)-4,6-diazaspiro[2.4]hept-4-en-7-one]
17 | 97.7 | 102 | 100 | ~407 | 355 | COC(=O)N1CC2(C1)N=C(c1ccc(-c3ccc4cccnc4c3)cc1)N(C[C@@H]1CCN(C(=O)[C@H]3CCCO3)C1)C2=O [compound 730, Methyl 8-oxo-6-(4-quinolin-7-ylphenyl)-7-({(3R)-1-[(2R)-tetrahydro-furan-2-ylcarbonyl]pyrrolidin-3-yl}methyl)-2,5,7-triazaspiro[3.4]oct-5-ene-2-carboxylate]
18 | 151 | 100 | 64.6 | 525 | 316 | COC(=O)N1CC2(C1)N=C(c1ccc(-c3ccc4cccnc4c3)cc1)N(C[C@@H]1CCN(C(=O)C3CC3)C1)C2=O [compound 728, Methyl 7-{[(3R)-1-(cyclopropylcarbonyl)pyrrolidin-3-yl]methyl}-8-oxo-6-(4-quinolin-7-ylphenyl)-2,5,7-triazaspiro[3.4]ect-5-ene-2-carboxylate]
19 | 117 | 100 | 64.6 | 550 | 275 | O=C([C@H]1CCCO1)N1CC[C@@H](CN2C(=O)C3(CCOCC3)N=C2c2ccc(-c3ccc4cccnc4c3)cc2)C1 [compound 663, 2-(4-Quinolin-7-ylphenyl)-3-({(3R)-1-[(2R)-tetrahydro-furan-2-ylcarbonyl]pyrrolidin-3-yl}methyl)-8-oxa-1,3-diazaspiro[4.5]dec-1-en-4-one]

Source: patent publication US10077261B2, “Imidazolin-5-one derivative useful as FASN inhibitors for the treatment of cancer” (Janssen Pharmaceutica NV, priority 2012, dated 2018)
